Legend:
Assay type in all cases: cell-based
h5-HT4(d) = biological target: T1, h5-HT4(d) (Homo sapiens, UniProt Q13639); assay: cAMP formation in stably transfected CHO cells; settings: 1 μM, 15 minutes
T1 construct: The entire coding region of the 5-HT4(c) and 5-HT4(d) cDNAs was subcloned; expressed in transfected cells
Protocol: (§1) The entire coding region of the 5-HT4(c) and 5-HT4(d) cDNAs was subcloned into a mammalian expression vector pRC/CMV (Invitrogen, Carlsbad, Calif.). The CHO cells are stably transfected by electroporation (250 V, 960 μF) with the plasmid PRc/CMV, containing the clone h5-HT4(c) or h5-HT4(d), cleaved with the restriction enzyme Kpn1 (10 μg of plasmid for 10^7 cells). The cells are cultured in HAM-F12 medium supplemented with 10% of heat-inactivated foetal calf serum. […] Twelve days later, the clones are individualized and cultured in 12-well plates. […] For the radioligand binding assays or for the measurement of cAMP formation, the cells transfected with the receptor 5-HT4 cDNA constructs were compared with the “blank”-transfected cells, which were exposed to the unmodified pRC/CMV plasmid.
(§2) To measure intracellular cAMP accumulation, the stably transfected CHO cells were incubated in the HAM-F12 medium containing 5 mM theophylline, 10 mM HEPES and 10 μM pargyline, for 15 minutes at 37° C. in the presence of 5% CO2. […] The reaction was stopped by aspiration of the medium and addition of 500 μl of ice-cold ethanol. After one hour at room temperature, the cells were scraped, and everything was collected and freeze-dried. […] The cAMP was quantified in the supernatant using a radio-immunological assay (E.R.I.A. assay kit from Immunotech, Marseilles). […]

h5-HT4(c) = biological target: T2, h5-HT4(c) (Homo sapiens, UniProt Q13639); assay: cAMP formation in stably transfected CHO cells; settings: 1 μM, 15 minutes
T2 construct: The entire coding region of the 5-HT4(c) and 5-HT4(d) cDNAs was subcloned; expressed in transfected cells
T2 sequence (Q13639 1-380 isoform Q13639-4): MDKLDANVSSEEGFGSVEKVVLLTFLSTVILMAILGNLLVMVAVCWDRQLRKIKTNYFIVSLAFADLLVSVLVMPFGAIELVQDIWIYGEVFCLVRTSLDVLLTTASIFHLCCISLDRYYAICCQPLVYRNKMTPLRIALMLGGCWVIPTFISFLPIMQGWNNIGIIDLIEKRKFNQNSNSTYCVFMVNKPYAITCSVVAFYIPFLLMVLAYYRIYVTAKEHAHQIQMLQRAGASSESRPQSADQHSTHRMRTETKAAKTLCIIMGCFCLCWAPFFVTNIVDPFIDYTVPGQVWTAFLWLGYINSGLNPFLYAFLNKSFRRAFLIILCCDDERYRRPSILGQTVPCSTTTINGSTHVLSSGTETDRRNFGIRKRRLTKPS
Protocol: as §1, §2

[1] = system: “blank”-transfected CHO cells; assay: cAMP formation in control CHO cells; settings: 1 μM
Protocol: The entire coding region of the 5-HT4(c) and 5-HT4(d) cDNAs was subcloned into a mammalian expression vector pRC/CMV (Invitrogen, Carlsbad, Calif.). The CHO cells are stably transfected by electroporation (250 V, 960 μF) with the plasmid PRc/CMV, containing the clone h5-HT4(c) or h5-HT4(d), cleaved with the restriction enzyme Kpn1 (10 μg of plasmid for 10^7 cells). The cells are cultured in HAM-F12 medium supplemented with 10% of heat-inactivated foetal calf serum. […] Twelve days later, the clones are individualized and cultured in 12-well plates. Clone selection is carried out by studying the stimulation of the cAMP formed in the presence of 1 μM serotonin. For the radioligand binding assays or for the measurement of cAMP formation, the cells transfected with the receptor 5-HT4 cDNA constructs were compared with the “blank”-transfected cells, which were exposed to the unmodified pRC/CMV plasmid.
To measure intracellular cAMP accumulation, the stably transfected CHO cells were incubated in the HAM-F12 medium containing 5 mM theophylline, 10 mM HEPES and 10 μM pargyline, for 15 minutes at 37° C. in the presence of 5% CO2. […] The reaction was stopped by aspiration of the medium and addition of 500 μl of ice-cold ethanol. […] The cAMP was quantified in the supernatant using a radio-immunological assay (E.R.I.A. assay kit from Immunotech, Marseilles). […]

receptor 5-HT4(c) = receptor 5-HT4(c) (Homo sapiens, UniProt Q13639); assay: cAMP formation in transiently transfected COS-7 cells; design: The entire coding region of the cDNAs of 5-HT4(a), 5-HT4(b), 5-HT4(c) and 5-T4(d) was subcloned; expressed in transfected cells; host or cells: COS-7 cells, transient, pRC/CMV vector; cDNA amplified from human brain and ileum RNA; settings: for increase in the basal cAMP level: 1 μM
receptor 5-HT4(c), sequence (Q13639 1-380 isoform Q13639-4): as above
Protocol: (§3) The entire coding region of the cDNAs of 5-HT4(a), 5-HT4(b), 5-HT4(c) and 5-T4(d) was subcloned into a mammalian expression vector pRC/CMV (Invitrogen, Carlsbad, Calif.). The transfections were carried out using polyethyleneimine (PEI) as described in Boussif et al. (1995). The cells were transfected using a mixture of DNA and of PEI in a ratio of 20 μmol of PEI/mg of DNA in 0.9% NaCl. For the radioligand binding assays, the COS-7 cells were seeded into culture flasks of 1.5×10^4 mm^2 one day before the transfection, at a density of 1×10^7 cells/flask, incubated for six hours with plasmid DNA (150 μg/flask) and collected 48 hours after transfection. For the measurement of cAMP formation, the COS-7 cells were seeded onto twelve-well plates one day before transfection, at a density of 5×10^5 cells/well, incubated for six hours with plasmid DNA (4 to 8 μg/well according to the experiments) and assayed 24 hours after the transfection. The cells transfected with the receptor 5-HT4 cDNA constructs were compared with the “blank”-transfected cells, which were exposed to the unmodified pRC/CMV plasmid.
(§4) To measure intracellular cAMP accumulation, the transiently transfected COS-7 cells were incubated, 24 hours after transfection, in Dulbecco's modified Eagle medium (DMEM) containing 5 mM theophylline, 10 mM HEPES and 10 μM pargyline for 15 minutes at 37° C., in the presence of 5% CO2. […] The reaction was stopped by aspiration of the medium and addition of 500 μl of ice-cold ethanol. After one hour at room temperature, the cells were scraped, and everything was collected and freeze-dried. The pellet was resuspended in 350 μl of PBS and centrifuged for 5 min at 300 g. The cAMP was quantified in the supernatant using a radioimmunological assay (E.R.I.A. assay kit from Pasteur Diagnostics 79830). Student's t tests were carried out using the program Quick TEst.
ML10375 is capable of reducing the cAMP levels in the cells expressing the 5-HT4(c) and 5-HT4(d) isoforms in the absence of any stimulation of the receptor by 5-HT4 agonists. To test the hypothesis that ML10375 may constitute a reverse agonist for the human receptor 5-HT4, the 5-HT4(c) isoform was overexpressed in COS-7 cells in order to increase the frequency of the spontaneously active state of the receptor. The COS-7 cells were transfected with 4 to 8 μg of plasmid DNA per well in order to obtain an increase in the expression levels of the receptor 5-HT4(c). […] (FIG. 6B).

[2] = system: “blank”-transfected COS-7 cells; assay: cAMP formation in control COS-7 cells; settings: 1 μM
Protocol: as §3, §4

receptor 5-HT4(d) = receptor 5-HT4(d) (Homo sapiens, UniProt Q13639); assay: cAMP formation in transiently transfected COS-7 cells; design: The entire coding region of the cDNAs of 5-HT4(a), 5-HT4(b), 5-HT4(c) and 5-T4(d) was subcloned; expressed in transfected cells; host or cells: COS-7 cells, transient, pRC/CMV vector; cDNA amplified from human brain and ileum RNA; settings: COS-7, 1 μM agonist, 15 minutes
receptor 5-HT4(d), sequence (Q13639 1-360 isoform Q13639-3): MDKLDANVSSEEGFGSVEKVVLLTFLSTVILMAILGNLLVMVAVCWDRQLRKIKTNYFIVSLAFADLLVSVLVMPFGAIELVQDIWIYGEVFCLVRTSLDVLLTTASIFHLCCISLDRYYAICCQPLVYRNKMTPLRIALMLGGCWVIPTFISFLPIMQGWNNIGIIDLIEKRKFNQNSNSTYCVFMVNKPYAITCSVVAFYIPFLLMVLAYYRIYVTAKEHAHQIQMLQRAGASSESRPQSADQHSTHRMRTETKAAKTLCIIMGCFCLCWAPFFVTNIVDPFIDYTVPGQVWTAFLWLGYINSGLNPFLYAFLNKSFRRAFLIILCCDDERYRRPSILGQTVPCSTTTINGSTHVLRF
Protocol: The entire coding region of the cDNAs of 5-HT4(a), 5-HT4(b), 5-HT4(c) and 5-T4(d) was subcloned into a mammalian expression vector pRC/CMV (Invitrogen, Carlsbad, Calif.). The transfections were carried out using polyethyleneimine (PEI) as described in Boussif et al. (1995). The cells were transfected using a mixture of DNA and of PEI in a ratio of 20 μmol of PEI/mg of DNA in 0.9% NaCl. For the radioligand binding assays, the COS-7 cells were seeded into culture flasks of 1.5×10^4 mm^2 one day before the transfection, at a density of 1×10^7 cells/flask, incubated for six hours with plasmid DNA (150 μg/flask) and collected 48 hours after transfection. For the measurement of cAMP formation, the COS-7 cells were seeded onto twelve-well plates one day before transfection, at a density of 5×10^5 cells/well, incubated for six hours with plasmid DNA (4 to 8 μg/well according to the experiments) and assayed 24 hours after the transfection. […]
To measure intracellular cAMP accumulation, the transiently transfected COS-7 cells were incubated, 24 hours after transfection, in Dulbecco's modified Eagle medium (DMEM) containing 5 mM theophylline, 10 mM HEPES and 10 μM pargyline for 15 minutes at 37° C., in the presence of 5% CO2. […] The cAMP was quantified in the supernatant using a radioimmunological assay (E.R.I.A. assay kit from Pasteur Diagnostics 79830). […]

receptor 5-HT4(a) = biological target: T3, receptor 5-HT4(a) (Homo sapiens, UniProt Q13639); assay: as above; settings: COS-7, 1 μM agonist, 15 minutes
T3 construct: The entire coding region of the cDNAs of 5-HT4(a), 5-HT4(b), 5-HT4(c) and 5-T4(d) was subcloned; expressed in transfected cells; host or cells: COS-7 cells, transient, pRC/CMV vector
T3 sequence (Q13639 1-387 isoform Q13639-2): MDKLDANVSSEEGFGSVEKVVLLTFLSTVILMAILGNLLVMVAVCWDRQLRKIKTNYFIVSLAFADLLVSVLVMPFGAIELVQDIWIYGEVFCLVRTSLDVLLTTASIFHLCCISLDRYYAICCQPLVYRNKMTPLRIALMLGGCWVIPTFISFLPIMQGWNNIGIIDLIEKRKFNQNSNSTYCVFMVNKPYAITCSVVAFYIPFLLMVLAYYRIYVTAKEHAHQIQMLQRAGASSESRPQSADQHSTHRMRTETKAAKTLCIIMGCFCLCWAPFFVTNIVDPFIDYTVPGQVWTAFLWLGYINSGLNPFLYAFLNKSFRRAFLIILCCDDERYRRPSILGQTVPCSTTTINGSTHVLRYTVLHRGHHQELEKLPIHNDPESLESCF
Protocol: as §3, §4

receptor 5-HT4(b) = biological target: T4, receptor 5-HT4(b) (Homo sapiens, UniProt Q13639); assay: as above; settings: COS-7, 1 μM agonist, 15 minutes
T4 construct: The entire coding region of the cDNAs of 5-HT4(a), 5-HT4(b), 5-HT4(c) and 5-T4(d) was subcloned; expressed in transfected cells; host or cells: COS-7 cells, transient, pRC/CMV vector; cDNA amplified from human brain and ileum RNA
T4 sequence (Q13639 whole entry): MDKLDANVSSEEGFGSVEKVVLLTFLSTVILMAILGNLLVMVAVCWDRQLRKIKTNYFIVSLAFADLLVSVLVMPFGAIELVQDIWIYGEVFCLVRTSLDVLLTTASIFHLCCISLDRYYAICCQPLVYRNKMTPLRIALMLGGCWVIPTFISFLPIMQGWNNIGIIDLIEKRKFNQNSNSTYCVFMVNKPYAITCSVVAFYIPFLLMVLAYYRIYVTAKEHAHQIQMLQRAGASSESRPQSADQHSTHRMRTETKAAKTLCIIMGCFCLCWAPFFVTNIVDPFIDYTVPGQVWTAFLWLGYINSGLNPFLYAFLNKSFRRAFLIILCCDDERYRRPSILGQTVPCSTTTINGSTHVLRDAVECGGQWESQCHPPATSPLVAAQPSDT
Protocol: as §3, §4

T1 sequence (Q13639 1-360 isoform Q13639-3): as the sequence (Q13639 1-360 isoform Q13639-3) above

## NCCc1c[nH]c2ccc(O)cc12 [5-HT, 5-hydroxytryptamine]
h5-HT4(d)
  increase in cAMP concentration: 118%
h5-HT4(c)
  increase in cAMP concentration: 91%
[1]
  effect on cAMP: no effect
Receptor 5-HT4(c); COS-7, 1 μM agonist, 15 minutes
  increase in cAMP concentration: 64%
Receptor 5-HT4(c); COS-7 transfected with 4 μg of plasmid DNA
  increase in the basal cAMP level: 64%
Receptor 5-HT4(c); COS-7 transfected with 8 μg of plasmid DNA
  increase in the basal cAMP level: did not significantly increase
[2]
  effect on basal adenylate cyclase activity / basal cAMP levels: no effect
Receptor 5-HT4(d)
  increase in cAMP concentration: 77%
Receptor 5-HT4(a)
  increase in cAMP concentration: 82%
Receptor 5-HT4(b)
  increase in cAMP concentration: 85%
